IC50 data for 15 compounds are collected here from BindingDB's records for doi:10.1002/cbic.201500446 (Hans Knöll Institute, 2015).

What is called IC50 is the point on the concentration scale where inhibition reaches its midpoint. Higher therefore signals lower potency.

Each structure is given as a SMILES string.

The target of the experiment is T1, Polyunsaturated fatty acid 5-lipoxygenase (Homo sapiens, UniProt P09917).
T1 sequence (P09917 whole entry): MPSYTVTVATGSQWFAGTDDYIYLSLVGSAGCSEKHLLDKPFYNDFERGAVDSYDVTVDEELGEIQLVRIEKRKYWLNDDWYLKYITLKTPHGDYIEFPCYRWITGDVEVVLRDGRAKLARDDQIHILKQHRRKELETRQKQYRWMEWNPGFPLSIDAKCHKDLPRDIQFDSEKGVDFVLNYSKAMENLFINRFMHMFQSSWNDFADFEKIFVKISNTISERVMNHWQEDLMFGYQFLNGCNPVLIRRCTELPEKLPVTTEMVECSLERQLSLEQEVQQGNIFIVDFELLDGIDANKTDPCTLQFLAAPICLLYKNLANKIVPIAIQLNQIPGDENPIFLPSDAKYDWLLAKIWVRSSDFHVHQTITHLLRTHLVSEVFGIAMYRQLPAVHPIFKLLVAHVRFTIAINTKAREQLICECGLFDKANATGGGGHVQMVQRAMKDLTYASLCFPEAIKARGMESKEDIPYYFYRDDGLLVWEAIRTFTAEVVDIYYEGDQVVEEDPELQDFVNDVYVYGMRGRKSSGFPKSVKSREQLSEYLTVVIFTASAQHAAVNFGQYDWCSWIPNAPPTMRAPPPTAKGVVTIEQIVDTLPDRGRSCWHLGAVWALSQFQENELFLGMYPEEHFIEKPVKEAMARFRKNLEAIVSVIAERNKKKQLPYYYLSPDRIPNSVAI
Nature of the experiment: 5-LO Activity Assay. Here is the method:
Purified 5-LO was diluted in PBS containing EDTA (1 mM) and freshly added ATP (1 mM) and incubated with the myxochelin test substances for 10 min at 4°C, followed by 30 s at 37°C. Addition of CaCl2 (2 mM) and arachidonic acid (20 µM) initiatedthe 5-LO product formation. After 10 min, the reaction was terminated by adding ice-old MeOH (1 mL), and the production of 5-LO metabolites was analyzed by RP-HPLC.

`O=C(NCCCC[C@@H](CO)NC(=O)c1cccc(F)c1)c1cccc(F)c1` [Myxochelin J12]: the IC50 is greater than 10 µM.

Compound `O=C(N[C@H](CO)CCCCNC(=O)c1cccc(O)c1O)c1ccccc1O` [Myxochelin J4] gave a 50% inhibitory concentration (IC50) of 3.54 µM.

In turn, `O=C(N[C@H](CO)CCCCNC(=O)c1cccc(O)c1O)c1ccccc1Cl` [Myxochelin J14] had a half-maximal inhibitory concentration (IC50) of 3.64 µM.

In turn, `O=C(N[C@H](CO)CCCCNC(=O)c1cccc(O)c1O)c1ccccc1` [Myxochelin J2] returned an IC50 of 2.39 µM.

The compound `O=C(NCCCC[C@@H](CO)NC(=O)c1ccccc1F)c1ccccc1F` [Myxochelin J11] returned an IC50 greater than 10 µM.

`O=C(N[C@H](CO)CCCCNC(=O)c1cccc(O)c1O)c1ccccc1F` [Myxochelin J10] registered an IC50 of 8.09 µM.

Turning to `O=C(NCCCC[C@@H](CO)NC(=O)c1cccc(O)c1O)c1ccccc1Cl` [Myxochelin J13], the midpoint of inhibition, the IC50, lay at 4.6 µM. This IC50 lies about 1.8-fold lower than the previous one.

Compound `O=C(NCCCC[C@@H](CO)NC(=O)c1c(O)cccc1F)c1cccc(O)c1O` [Myxochelin J7] displayed an IC50 of 1.18 µM.

In turn, `O=C(N[C@H](CO)CCCCNC(=O)c1c(O)cccc1F)c1cccc(O)c1O` [Myxochelin J6] returned an IC50 of 1.44 µM.

For the compound `O=C(NCCCC[C@@H](CO)NC(=O)c1cccc(O)c1O)c1ccccc1F` [Myxochelin J9], the IC50 stood at 8.4 µM.

`O=C(NCCCC[C@@H](CO)NC(=O)c1c(O)cccc1F)c1c(O)cccc1F` [Myxochelin J8]: the IC50 is 3.6 µM.

In turn, `O=C(NCCCC[C@@H](CO)NC(=O)c1cccc(O)c1O)c1cccc(O)c1O` [Myxochelin A] returned an IC50 of 1.72 µM. Compared with the last compound, the IC50 is about 2.1-fold lower.

For the compound `O=C(NCCCC[C@@H](CO)NC(=O)c1ccccc1O)c1ccccc1O` [Myxochelin J5], the IC50 came to 9.32 µM.

The compound `O=C(NCCCC[C@@H](CO)NC(=O)c1cccc(O)c1O)c1ccccc1O` [Myxochelin J3] gave an IC50 of 1.52 µM.

In turn, `O=C(NCCCC[C@@H](CO)NC(=O)c1cccc(O)c1O)c1ccccc1` [Myxochelin J1] displayed an IC50 of 3.15 µM.
